Experimental data reported in patent US4245099A, “2-Acyl-6-aminomethylphenol derivatives” (Ono Pharmaceutical Co., Ltd., priority 1978, dated 1981).
Where a name gives a salt, the structure may show the parent alone.

Columns and labels:
[1] = system: Carrageenan-Induced Edema in Rat Paws; assay: Carrageenan-induced edema in rat paws (anti-inflammatory effect); type: in vivo; conditions: 3 h, oral, carrageenan injected one hour after dosing, swelling measured at third hour of carrageenan injection, read-out: % Inhibition of Paw Edema
Protocol: For example, in a laboratory experiment, one hour after oral administration with these compounds, the rats were subcutaneously injected with 0.1 ml of 1% carrageenan suspension on the plantar surface of the right hind paw. The swelling was measured at the third hour of carrageenan injection. Anti-inflammatory effect of the compounds was determined as percentage inhibition of the swelling, taking the swelling in the control groups as 100%.

[2] = system: pain threshold of inflamed foot (beer yeast) in rats; assay: Randall-Selitto method (analgesic effect in rat); type: in vivo; conditions: male rats, oral, 2 hours after 20% beer yeast into subplantar area
Protocol: Male rats were administered orally with 2-propionyl-4-tert-butyl-6-aminomethylphenol hydrochloride 2 hours after injection of 0.1 ml of 20% suspension beer yeast into subplantar area of one hind paw. Pain threshold determination was made on the normal and inflamed foot, using apparatus similar to that described by Randall-Selitto. Pain threshold change was expressed as percentage of control.

[3] = system: acetic acid stretching in mice; assay: Acetic acid stretching method (analgesic effect in mice); type: in vivo; conditions: male mice, oral, 0.6% acetic acid i.p. 30 minutes later, counted for 10 minutes from 5 minutes after injection
Protocol: Male mice were given orally with these compounds and 30 minutes later injected intraperitoneally with 0.1 ml/10 g of 0.6% acetic acid. The number of stretching was countered for 10 minutes from 5 minutes after injection of acetic acid. The value was expressed in the percentage of control.

ulcer in rats = assay: Sign of ulcer upon oral administration in rats; type: in vivo, rat; conditions: 200 mg/kg

Compound	inhibition in vivo at 30 mg/kg [1]	also measured
CSCCC(=O)c1cc(C(C)(C)C)cc(CN)c1O [2-(3-Methylthiopropionyl)-4-tert-butyl-6-aminomethylphenol hydrochloride]	29.3%	–
CC(C)(C)c1cc(CN)c(O)c(C(=O)Cc2ccccc2)c1 [2-Phenylacetyl-4-tert-butyl-6-aminomethylphenolhydrochloride]	20.3%	–
CC(=O)c1cc(C(C)(C)C)cc(CN)c1O [2-Acetyl-4-tert-butyl-6-aminomethylphenol hydrochloride]	46.7%	–
CC(=O)c1c(O)c(CN)cc2c1CCCC2 [1-Acetyl-3-aminomethyl-5,6,7,8-tetrahydro-2-naphthol hydrochloride]	55.3%	–
CC(C)(C)c1cc(CN)c(O)c(C(=O)c2ccccc2)c1 [2-Benzoyl-4-tert-butyl-6-aminomethylphenol hydrochloride]	47.6%	–
CCC(=O)c1cc(C(C)(C)C)cc(CN)c1O.Cl [2-Propionyl-4-tert-butyl-6-aminomethylphenol hydrochloride]	72.8%	% Inhibition (Randall-Selitto pain threshold change) ([2]; 50 mg/kg): 70%; % Inhibition (Randall-Selitto pain threshold change) ([2]; 100 mg/kg): 113%; % Inhibition (acetic acid stretching) ([3]; 10 mg/kg): 35.3%; % Inhibition (acetic acid stretching) ([3]; 20 mg/kg): 61.3%; % Inhibition (acetic acid stretching) ([3]; 50 mg/kg): 85.3%; sign of ulcer (ulcer in rats): did not show any sign of ulcer
CC(C)(C)c1cc(CN)c(O)c(C(=O)c2ccc(Br)cc2)c1 [2-(4-Bromobenzoyl)-4-tert-butyl-6-aminomethylphenol hydrochloride]	35%	–
CC(=O)c1cc2c(c(CN)c1O)CCCC2C (centres unmarked) [1-Aminomethyl-3-acetyl-5-methyl-5,6,7,8-tetrahydro-2-naphthol hydrochloride]	66.3%	–
CC(C)(C)c1cc(CN)c(O)c(C(=O)C2CCCCC2)c1 [2-Cyclohexylcarbonyl-4-tert-butyl-6-aminomethylphenol hydrochloride]	27.1%	–
CCC(=O)c1c(O)c(CN)cc2c1CCCC2 [1-Propionyl-3-aminomethyl-5,6,7,8-tetrahydro-2-naphthol hydrochloride]	37.4%	–
CC(C)(C)c1cc(CN)c(O)c(C(=O)CCl)c1 [2-Chloroacetyl-4-tert-butyl-6-aminomethylphenol hydrochloride]	59.2%	–
CCCC(=O)c1cc(C(C)(C)C)cc(CN)c1O [2-Butyryl-4-tert-butyl-6-aminomethylphenol hydrochloride]	34.1%	–
CC(C)C(=O)c1cc(C(C)(C)C)cc(CN)c1O.Cl [2-Isobutyryl-4-tert-butyl-6-aminomethylphenol hydrochloride]	55.5%	% Inhibition (acetic acid stretching) ([3]; 50 mg/kg): 49.7%
